Entries after “also recorded” stand apart in the source; their conditions may differ.
Assays:
[1] = system: intestinal fungi; experiment: Depletion of intestinal fungi by fluconazole, colon sections stained with sDEC-1; format: in vivo, mouse; conditions: mice treated with fluconazole 0.5 mg/ml in drinking water for 2 weeks; sDEC-1 staining of colon sections
Protocol: OCT-embedded intestinal specimens were sectioned, mounted on microscope slides and then incubated for 40 min in PBS containing 2% FCS. Murine soluble Dectin-1 (sDec-1) was generated and biotin-labeled as previously described. sDec-1 (10 μg/ml) was fluorescently labeled with streptavidin-Alexa 647 (2 μg/ml, Invitrogen) (sDec-1-Alexa647), and intestinal sections were stained for 1 hr. To block Dectin-1 interaction. sDec-1-Alexa647 was incubated with 1 μg/ml laminarin (soluble β-glucan from Laminaria digitata, Sigma) and intestinal sections were stained as previously described. Alternatively, intestinal sections were stained with FITC conjugated rabbit anti-Candida polyclonal antibody (Meridian Life Science, Cincinnati, Ohio). […] Therefore throughout this study we have referred to the antibody as an “anti-fungal antibody”. Slides were rinsed with PBS and stained for 5 min with 0.1 μg/ml 4′,6-diamidino-2-phenylindole (DAPI, Invitrogen) and overlaid with mounting medium (Vectashield; Vector, Burlingame, Calif.). Slides were examined using a Zeiss Axio Observer Fluorescence microscope. All compared images were collected and processed identically. Colons from Fluconazole (0.5 mg/ml for 2 weeks in the drinking water) treated mice were used in control staining.

[2] = system: DSS colitis; experiment: DSS colitis with fluconazole in the drinking water (anti-fungal therapy); format: in vivo, mouse; conditions: Clec7a−/− mice; for weight loss during colitis: fluconazole 0.5 mg/ml in drinking water for 14 days starting 2 days prior to DSS, 2.5% DSS 7 days, effect from day 9 (p<0.05)
Protocol: WT and Clec7a−/− mice were cohoused for three weeks prior the experiments. Alternatively, WT and Clec7a−/− littermates were used where indicated. For the induction of colitis, mice were given drinking water supplemented with 2.5% (w/v) Dextran sulphate sodium (DSS, MP Biomedicals, LLC, Aurora, Ohio) for 7 days and sacrificed at day 12. For ablation of intestinal fungi, mice were given Fluconazole (0.5 mg/ml, Sigma) in the drinking water for total of 14 days starting 2 days prior the induction of DSS colitis. In some experiments, prior and upon colitis induction, mice were supplemented every other day with four doses (1×108 yeast/mouse/dose) of Candida tropicalis or Saccharomycopsis fibuligera as shown in FIG. 19. Body weight, gross blood, and stool consistency were analyzed on a daily basis. Paraffin embedded colon tissues were sectioned and stained with H&E for pathology assessment. Assessment of the severity of colitis was measured by the disease activity index (DAI) as previously described.
LI-LP lymphocytes were isolated as previously described with some modifications. Briefly, colons were isolated, opened longitudinally, washed of fecal contents and then cut into 1 cm pieces. Intestinal pieces were transferred into HBSS medium (Sigma), supplemented with 5% fetal bovine serum (FBS) and 2 mM EDTA, and were shaken for 15 min at 37° C. The suspensions were filtered through a mesh and the filtrate containing the mucosa and mucosa associated microflora was used further for DNA isolation. The remaining tissue was washed, cut in small pieces and subsequently incubated in digestion medium consisting of RPMI 1640, 5% FBS, 0.5 mg/ml collagenase type VIII (Sigma), 5 U/ml DNase (Roche Diagnostics), 100 IU/ml penicillin and 100 μg/ml streptomycin for 30 min at 37° C. by gentle shaking. The cell suspensions were filtered through a mesh, and then centrifuged at 1300 rpm. Cell suspensions were cultured overnight and TNF-α production by colonic cells was measured by ELISA (BioLegend, San Diego, Calif.).
Cell suspensions were prepared from MLNs and the LI-LP as described above. Cells were incubated with 50 ng/ml phorbol 12-myristate 13-acetate (PMA; Sigma-Aldrich), 500 ng/ml ionomycin (Sigma-Aldrich) and 10 μg/ml Brefeldin A (BFA; Sigma-Aldrich) in complete RPMI media at 37° C. for 6 h. After surface staining with CD4, cells were permeabilized and intracellular cytokine staining was performed using APC-labeled anti-IFN-γ mAb (XMG1.2; BD Biosciences) and PE-labeled anti-IL-17 mAb (TC11-18H10; BD Biosciences) according to the manufacturer's instructions. Flow cytometry was performed using a LSRII (BD Biosciences) and data were analyzed with FlowJo software (TreeStar Inc.).
For detection of cytokines by ELISA, MLN cells and LI-LP lymphocytes were stimulated with 10 μg/ml plate bound anti-CD3 and anti-CD28 antibodies (BioLegend, San Diego, Calif.). Supernatants were collected after 36 hrs and analyzed for IFN-γ and IL-17 production by ELISA (BioLegend, San Diego, Calif.).
Tissue samples from the proximal and distal colon were isolated and homogenized. RNA was isolated by using RNeasy Mini Kit (Qiagen) and reverse transcribed. Real-time RT-PCR analyses were done on the Applied Biosystems 7500 Fast Real-Time PCR System with the SYBR Green PCR kit as instructed by the manufacturer (Applied Biosystems). […] Samples were analyzed for gene expression using the following primers: […]

[3] = fluconazole in drinking water, DSS colitis

SMILES: OC(Cn1cncn1)(Cn1cncn1)c1ccc(F)cc1F [fluconazole]
- presence of fungi in the intestine [1]: substantially reduces the presence of fungi; also recorded: suppressed fungal growth
- weight loss during colitis [2]: reduced weight loss
- weight loss during colitis ([2]; listed as Fluconazole): significantly abrogated weight loss
- colitis overall ([2]; fluconazole in drinking water for 14 days starting 2 days prior to DSS): ameliorates colitis
- histological disease characteristics (histology score) ([2]; fluconazole in drinking water, 4 days after the 7 days of DSS): milder histological disease characteristics
- Th1 and Th17 responses (IL-17 and IFN-γ producing CD4+ T cells in LI-LP, production in MLNs) [2, 3]: decreased Th1 and Th17 responses
- production of inflammatory cytokines in the colon [2, 3]: decreased production of inflammatory cytokines
